# Measured values: patent publication US10300155B2, “Alpha-synuclein ligands” (Washington University, priority 2015, dated 2019)
# “And” between values parts separate entries of the source, which are not always exact repeats. Equal entries are not always repeated. Where two headings read alike, the source gives them in different places.
# Key:
# tau fibrils = tau fibrils (Homo sapiens, UniProt P10636); assay: ThT competitive assay for tau fibrils (Table 3); format: binding; parameters: made in house; host or cells: E. coli; settings: for EC50: tau fibrils
# Sequence of tau fibrils (P10636 560-692 limits assumed): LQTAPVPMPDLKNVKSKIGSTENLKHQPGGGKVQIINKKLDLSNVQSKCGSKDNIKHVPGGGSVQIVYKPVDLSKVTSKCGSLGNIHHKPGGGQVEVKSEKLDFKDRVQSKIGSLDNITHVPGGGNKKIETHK
# Method: Tau fibril recombinant protein was produced in E. coli. Additional preparation was performed in a similar fashion to Example 115.
# Aβ fibrils = Aβ fibrils (Homo sapiens, UniProt P05067); assay: ThT competitive assay for Aβ fibrils (Table 2); format: binding; parameters: made in house; host or cells: E. coli; settings: for EC50: Aβ fibrils
# Sequence of Aβ fibrils (P05067 672-713 limits assumed): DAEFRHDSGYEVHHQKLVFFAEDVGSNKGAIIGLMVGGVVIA
# Method: […] recombinant protein was produced in E. coli. Additional preparation was performed in a similar fashion to Example 115. […] The inhibitor that binds with highest affinity to Aβ fibrils has the lowest dissociation constant (Ki).
# α-synuclein fibrils [1] = biological target: T1, α-synuclein fibrils (Homo sapiens, UniProt P37840); assay: ThT competitive assay for α-synuclein fibrils (Table 1); format: binding; settings: for EC50: α-synuclein fibrils
# T1 construct: made in house; host or cells: E. coli BL21(DE3)RIL
# Method: Upon binding to amyloid fibrils, a peak at approximately 440 nm becomes dominant with the fluorescent emission maximum shifted to 480 nm. This is accompanied by a strong enhancement of the fluorescence.
# α-Synuclein recombinant protein was produced in E. coli. […] Freshly transformed BL21 colonies were inoculated into 2 L baffled flasks containing 250 mL sterilized TB (1.2% bactotryptone, 2.4% yeast extract, 0.4% glycerol, 0.17 M KH2PO4, 0.72 M K2HPO4) with 50 μg/ml ampicillin, and incubated overnight at 37° C. with shaking.
# To determine the concentration of fibrils, the reaction mixture (100 μL) was centrifuged at 18,000×g for 10 minutes to separate fibrils from monomer. The α-synuclein monomer and other soluble proteins in the supernatant were removed, and the fibril pellet was resuspended in 100 μL solution of Tris-HCl (20 mM) and NaCl (100 mM). This fibril suspension was used in a bicinchoninic acid (BCA) protein assay along with a bovine serum albumin (BSA) standard curve to determine the concentration of fibrils in the 72 hour fibril reaction mixture.
# To prepare the fibrils for performing binding assays, the fibril reaction mixture prepared above was centrifuged at 18,000×g for 10 minutes.
# Once the ThT-α-synuclein saturation binding curve and dissociation constant (Kd) were determined the competitive assay for determining the binding affinity of various test compounds was conducted. […] The mixture was incubated at room temperature for 60 minutes on the shaking plate. The fluorescent intensity for each cell was measured by the fluorescence reader at λex and λem. The Ki value for each compound was calculated by the corresponding inhibition curve.
# The Ki values were derived from the EC50 values using the Cheng-Prusoff equation: Ki=EC50/(1+[radioligand]/Kd). See FIGS. 17.1-31.2 for the inhibition curves for each compound in the ThioT competitive binding assay.
# [2] = Biodistribution in male Balb/C mice; format: in vivo; settings: for Biodistribution: Blood / Biodistribution: Bone / Biodistribution: Brain / Biodistribution: Fat / Biodistribution: Heart / Biodistribution: Kidney / Biodistribution: Liver / Biodistribution: Lung / Biodistribution: Muscle / Biodistribution: Pancreas / Biodistribution: Spleen: tail vein, mean ± SD, n = 4
# Method: For the biodistribution studies, 100˜130 μCi of [^11C] TZ-20-35 in ˜100 μL of 10% ethanol/saline solution (v/v) was injected via the tail vein into mature male Balb/C mice (19-24 g) under anesthesia (2.5% isoflurane in oxygen at a flow rate of 1 mL/min). A group of at least four […] were used for each time point. […] The whole brain was quickly harvested. At the same time, samples of blood, heart, lung, liver, spleen, pancreas, kidney, muscle, fat, and tail were dissected. All the tissue samples were collected in tared tubes and counted in an automated gamma counter (Beckman Gamma 8000 well counter) with standards, prepared by diluting the injectate. The counted tissues were then weighed, and the % ID/g was calculated (Table 4).
# α-synuclein fibrils [3] = biological target: T1, α-synuclein fibrils; assay: Thioflavin T competition assay (Example 130, Table 9), α-synuclein fibrils; format: binding
# Method: Freshly transformed BL21 colonies were inoculated into 2 L baffled flasks containing 250 ml sterilized TB (1.2% bactotryptone, 2.4% yeast extract, 0.4% glycerol, 0.17 M KH2PO4, 0.72 M K2HPO4) with 50 μg/ml ampicillin, and incubated overnight at 37° C. with shaking.
# Competition assays used a fixed concentration of α-syn, Aβ, or tau fibrils (1 μM), consisting of 3 μM, 50 nM and 4 μM of ThioflavinT respectively. […] To optimize the determination of selectivity, assays for all three fibril species were set up in parallel using a common set of intermediate compound dilutions for each analog. Reactions were incubated at room temperature for 1.5 h before quantifying bound ligand as described above for the saturation binding assay. […] All data points were performed in triplicate. Nonspecific fluorescence was measured in parallel reactions containing ThioT plus each concentration of competitor but no fibrils, and these measurements were subtracted from the reactions with fibrils to yield fibril-specific fluorescence. Data were analyzed using Graphpad. Prism software (version 4.0) to obtain EC50 values by fitting the data to the equation Y=bottom+(top-bottom)/(1+10^(x−log EC50)).
# [4] = average, read-out: EC50(nM) EC50 (avg)
# [5] = individual determinations, read-out: EC50(nM) EC50
# [6] = average, read-out: Ki (nM) Aβ (avg)
# [7] = individual determinations, read-out: Ki (nM) Aβ
# [8] = average, read-out: Ki (nM) α-syn (avg)
# [9] = individual determinations, read-out: Ki (nM) α-syn
# [10] = average, read-out: EC50 (nM) EC50 (avg)
# [11] = individual determinations, read-out: EC50 (nM) EC50
# [12] = average, read-out: α-synuclein EC50 (avg)
# [13] = average, read-out: α-synuclein Ki (avg)
# [14] = individual determinations, read-out: α-synuclein EC50
# [15] = individual determinations, read-out: α-synuclein Ki
smiles,measurement,setting,value
COc1ccc(/C=C/c2cccs2)cc1 [TZ-34-26],Ki,"tau fibrils; average, read-out: Ki (nM) Tau (avg)",1370 nM
same,Ki,"tau fibrils; individual determinations, read-out: Ki (nM) Tau",1370 nM
same,EC50,"tau fibrils; average, read-out: EC50m (nM) EC50 (avg)",3350 nM
same,EC50,"tau fibrils; individual determinations, read-out: EC50m (nM) EC50",3350 nM
same,EC50,Aβ fibrils; [4],6660 nM
same,EC50,Aβ fibrils; [5],6660 nM
same,Ki,Aβ fibrils; [6],2500 nM
same,Ki,Aβ fibrils; [7],2500 nM
same,Ki,α-synuclein fibrils [1]; [8],176 nM
same,Ki,α-synuclein fibrils [1]; [9],51.3 nM and 283 nM and 126 nM and 291 nM and 82 nM and 221 nM
same,EC50,α-synuclein fibrils [1]; [10],460 nM
same,EC50,α-synuclein fibrils [1]; [11],134 nM and 739 nM and 329 nM and 762 nM and 214 nM and 580 nM
O=C(Nc1ccc(OCC[18F])cc1)c1ccc(/C=C/c2ccncc2)cc1 [[^18F]TZ-23-88],Biodistribution: Blood,[2]; 5 min post injection,2.50 ± 0.13 % ID/g
same,Biodistribution: Bone,[2]; 5 min post injection,4.07 % ID/g and 4.07 ± 0.50 % ID/g
same,Biodistribution: Brain,[2]; 5 min post injection,4.59 % ID/g and 4.69 ± 0.70 % ID/g
same,Biodistribution: Fat,[2]; 5 min post injection,2.43 ± 0.42 % ID/g
same,Biodistribution: Heart,[2]; 5 min post injection,4.82 ± 0.47 % ID/g
same,Biodistribution: Kidney,[2]; 5 min post injection,35.67 ± 1.48 % ID/g
same,Biodistribution: Liver,[2]; 5 min post injection,16.30 ± 3.53 % ID/g
same,Biodistribution: Lung,[2]; 5 min post injection,8.50 ± 0.60 % ID/g
same,Biodistribution: Muscle,[2]; 5 min post injection,2.60 ± 0.19 % ID/g
same,Biodistribution: Pancreas,[2]; 5 min post injection,4.91 ± 0.68 % ID/g
same,Biodistribution: Spleen,[2]; 5 min post injection,3.12 ± 0.12 % ID/g
same,Biodistribution: Blood,[2]; 30 min post injection,2.30 ± 0.05 % ID/g
same,Biodistribution: Bone,[2]; 30 min post injection,28.50 % ID/g and 28.50 ± 2.81 % ID/g
same,Biodistribution: Brain,[2]; 30 min post injection,4.07 % ID/g and 4.07 ± 0.21 % ID/g
same,Biodistribution: Fat,[2]; 30 min post injection,1.70 ± 0.17 % ID/g
same,Biodistribution: Heart,[2]; 30 min post injection,2.23 ± 0.06 % ID/g
same,Biodistribution: Kidney,[2]; 30 min post injection,15.72 ± 1.06 % ID/g
same,Biodistribution: Liver,[2]; 30 min post injection,19.56 ± 0.97 % ID/g
same,Biodistribution: Lung,[2]; 30 min post injection,2.57 ± 0.15 % ID/g
same,Biodistribution: Muscle,[2]; 30 min post injection,1.35 ± 0.04 % ID/g
same,Biodistribution: Pancreas,[2]; 30 min post injection,3.02 ± 0.19 % ID/g
same,Biodistribution: Spleen,[2]; 30 min post injection,1.59 ± 0.08 % ID/g
same,Biodistribution: Blood,[2]; 60 min post injection,1.28 ± 0.06 % ID/g
same,Biodistribution: Bone,[2]; 60 min post injection,42.68 % ID/g and 42.68 ± 1.69 % ID/g
same,Biodistribution: Brain,[2]; 60 min post injection,3.21 % ID/g and 3.21 ± 0.14 % ID/g
same,Biodistribution: Fat,[2]; 60 min post injection,0.69 ± 0.10 % ID/g
same,Biodistribution: Heart,[2]; 60 min post injection,1.23 ± 0.05 % ID/g
same,Biodistribution: Kidney,[2]; 60 min post injection,5.59 ± 0.29 % ID/g
same,Biodistribution: Liver,[2]; 60 min post injection,10.71 ± 0.80 % ID/g
same,Biodistribution: Lung,[2]; 60 min post injection,1.31 ± 0.07 % ID/g
same,Biodistribution: Muscle,[2]; 60 min post injection,0.75 ± 0.07 % ID/g
same,Biodistribution: Pancreas,[2]; 60 min post injection,1.84 ± 0.33 % ID/g
same,Biodistribution: Spleen,[2]; 60 min post injection,0.90 ± 0.07 % ID/g
same,Biodistribution: Blood,[2]; 120 min post injection,0.70 ± 0.05 % ID/g
same,Biodistribution: Bone,[2]; 120 min post injection,49.39 % ID/g and 49.39 ± 8.21 % ID/g
same,Biodistribution: Brain,[2]; 120 min post injection,2.37 % ID/g and 2.37 ± 0.14 % ID/g
same,Biodistribution: Fat,[2]; 120 min post injection,0.23 ± 0.12 % ID/g
same,Biodistribution: Heart,[2]; 120 min post injection,0.71 ± 0.12 % ID/g
same,Biodistribution: Kidney,[2]; 120 min post injection,1.94 ± 0.29 % ID/g
same,Biodistribution: Liver,[2]; 120 min post injection,5.59 ± 0.39 % ID/g
same,Biodistribution: Lung,[2]; 120 min post injection,0.71 ± 0.09 % ID/g
same,Biodistribution: Muscle,[2]; 120 min post injection,0.55 ± 0.21 % ID/g
same,Biodistribution: Pancreas,[2]; 120 min post injection,0.98 ± 0.10 % ID/g
same,Biodistribution: Spleen,[2]; 120 min post injection,0.47 ± 0.04 % ID/g
same,crossing of the blood brain barrier,[2]; judged from brain uptake at 5 min,can cross the blood brain barrier and enter the brain
same,defluorination,[2]; judged from increasing bone uptake in the mice,strong defluorination
COc1ccc(/C=C/c2ccco2)cc1 [TZ-34-24],EC50,Aβ fibrils; [4],2280 nM
same,EC50,Aβ fibrils; [5],2560 nM and 2000 nM
same,Ki,Aβ fibrils; [6],888 nM
same,Ki,Aβ fibrils; [7],961 nM and 815 nM
same,Ki,α-synuclein fibrils [1]; [8],345 nM
same,Ki,α-synuclein fibrils [1]; [9],610 nM and 163 nM and 262 nM
same,EC50,α-synuclein fibrils [1]; [10],902 nM
same,EC50,α-synuclein fibrils [1]; [11],1590 nM and 426 nM and 686 nM
COCOc1ccc2nc(/C=C/c3ccnc(OC)c3)ccc2c1 [TZ-36-144],EC50,α-synuclein fibrils [3]; [12],110 nM
same,Ki,α-synuclein fibrils [3]; [13],42 nM
same,EC50,α-synuclein fibrils [3]; [14],110 nM
same,Ki,α-synuclein fibrils [3]; [15],42 nM
same,Ki,α-synuclein fibrils [1]; [8],42 nM
same,Ki,α-synuclein fibrils [1]; [9],42 nM
same,EC50,α-synuclein fibrils [1]; [10],110 nM
same,EC50,α-synuclein fibrils [1]; [11],110 nM
COc1cc(/C=C/c2ccc3cc(OC(C)C)ccc3n2)ccn1 [TZ-36-138],EC50,α-synuclein fibrils [3]; [12],128 nM
same,Ki,α-synuclein fibrils [3]; [13],49 nM
same,EC50,α-synuclein fibrils [3]; [14],128 nM
same,Ki,α-synuclein fibrils [3]; [15],49 nM
same,Ki,α-synuclein fibrils [1]; [8],49 nM
same,Ki,α-synuclein fibrils [1]; [9],49 nM
same,EC50,α-synuclein fibrils [1]; [10],128 nM
same,EC50,α-synuclein fibrils [1]; [11],128 nM
COc1ccc2nc(C#Cc3ccnc(OC)c3)ccc2c1 [TZ-36-142],EC50,α-synuclein fibrils [3]; [12],609 nM
same,Ki,α-synuclein fibrils [3]; [13],233 nM
same,EC50,α-synuclein fibrils [3]; [14],609 nM
same,Ki,α-synuclein fibrils [3]; [15],233 nM
same,Ki,α-synuclein fibrils [1]; [8],233 nM
same,Ki,α-synuclein fibrils [1]; [9],233 nM
same,EC50,α-synuclein fibrils [1]; [10],609 nM
same,EC50,α-synuclein fibrils [1]; [11],609 nM
